Source: patent US8129389B2, “Substituted oxindole derivatives, medicaments containing the latter and use thereof” (Abbott GmbH & Co. KG, priority 2005, dated 2012)
Where two headings read alike, the source gives them in different places.

Target: T1, human V1b receptors (Homo sapiens, UniProt P47901)
T1 construct: expressed in transfected cells
T1 sequence (P47901 1-424): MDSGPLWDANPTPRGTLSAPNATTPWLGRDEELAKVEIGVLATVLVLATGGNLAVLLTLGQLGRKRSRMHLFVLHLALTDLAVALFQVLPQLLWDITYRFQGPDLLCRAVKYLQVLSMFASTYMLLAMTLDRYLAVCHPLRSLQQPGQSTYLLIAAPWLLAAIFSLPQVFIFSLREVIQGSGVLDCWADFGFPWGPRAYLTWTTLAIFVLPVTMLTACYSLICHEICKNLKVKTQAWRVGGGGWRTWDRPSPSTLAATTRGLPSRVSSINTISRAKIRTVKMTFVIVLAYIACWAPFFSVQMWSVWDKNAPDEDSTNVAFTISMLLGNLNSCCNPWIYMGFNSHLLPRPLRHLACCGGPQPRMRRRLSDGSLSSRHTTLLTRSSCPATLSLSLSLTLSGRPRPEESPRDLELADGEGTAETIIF
Assay: Vasopressin V1b receptor binding assay
Procedure: Vasopressin V1b Receptor Binding Assay:
These DMSO solutions were diluted 1:10 with assay buffer. The substance concentration was further diluted 1:10 in the assay mixture.
The nonspecific binding was determined with 10^−6 M AVP. Determinations in triplicate were carried out.
The affinities for the human vasopressin V1b receptor were measured, and affinity constants determined, in the above assay for the inventive examples.
The affinities of the compounds (I) of the invention for the human vasopressin V1b receptor were measured in accordance with the above assays, and the affinity constants (Ki) were determined. Table 1 below details the V1b receptor affinity of selected compounds (+++ means <10 nM and ++ means 10-100 nM).

[1] = Table 1, human vasopressin V1b receptor affinity, read-out: V1b Ki
[2] = membranes from CHO-K1 cells, 3H-AVP displacement, read-out: measured Ki values, affinities for the vasopressin V1b receptor

SMILES	Ki [1] [nM]	Ki [2] [nM]
CCOc1ccccc1C1(NC(=O)N2CCN(c3nccs3)CC2)C(=O)N(S(=O)(=O)c2ccc(OC)cc2OC)c2ccc(C#N)cc21 (stereo not drawn) [Example 31, 4-(Thiazol-2-yl)piperazine-1-[1-(2,4-dimethoxybenzenesulfonyl)-5-cyano-2-oxo-3-(2-ethoxyphenyl)-2,3-dihydro-1H-indol-3-yl]carboxamide]	< 10	< 100
CCOc1ccccc1C1(NC(=O)N2CCN(c3ccc(C#N)cn3)CC2)C(=O)N(S(=O)(=O)c2ccc(OC)cc2OC)c2ccc(C#N)cc21 (stereo not drawn) [Example 33, 4-(5-Cyanopyridin-2-yl)piperazine-1-[1-(2,4-dimethoxybenzenesulfonyl)-5-cyano-2-oxo-3-(2-ethoxyphenyl)-2,3-dihydro-1H-indol-3-yl]carboxamide]	< 10	< 100
CCOc1ccccc1C1(NC(=O)N2CCN(c3cnccn3)CC2)C(=O)N(S(=O)(=O)c2ccc(OC)cc2OC)c2ccc(C#N)cc21 (stereo not drawn) [Example 35, 4-(Pyrazin-2-yl)piperazine-1-[1-(2,4-dimethoxybenzenesulfonyl)-5-cyano-2-oxo-3-(2-ethoxyphenyl)-2,3-dihydro-1H-indol-3-yl]carboxamide]	10 to 100	< 100
CCOc1ccccc1C1(NC(=O)N2CCN(c3ccc(C#N)cn3)CC2)C(=O)N(S(=O)(=O)c2ccc([N+](=O)[O-])cc2)c2ccc(C#N)cc21 (stereo not drawn) [Example 43, 4-(5-Cyanopyridin-2-yl)piperazine-1-[1-(4-nitrobenzenesulfonyl)-5-cyano-2-oxo-3-(2-ethoxyphenyl)-2,3-dihydro-1H-indol-3-yl]carboxamide]	10 to 100	< 100
CCOc1ccccc1C1(NC(=O)N2CCN(c3ccc(C#N)cn3)CC2)C(=O)N(S(=O)(=O)c2ccc(Cl)cc2)c2ccc(C#N)cc21 (stereo not drawn) [Example 46, 4-(5-Cyanopyridin-2-yl)piperazine-1-[1-(4-chlorobenzenesulfonyl)-5-cyano-2-oxo-3-(2-ethoxyphenyl)-2,3-dihydro-1H-indol-3-yl]carboxamide]	10 to 100	< 100
CCOc1ccccc1C1(NC(=O)N2CCN(c3ccc(C#N)cn3)CC2)C(=O)N(S(=O)(=O)c2ccc(C#N)cc2)c2ccc(C#N)cc21 (stereo not drawn) [Example 47, 4-(5-Cyanopyridin-2-yl)piperazine-1-[1-(4-cyanobenzenesulfonyl)-5-cyano-2-oxo-3-(2-ethoxyphenyl)-2,3-dihydro-1H-indol-3-yl]carboxamide]	10 to 100	< 100
CCOc1ccccc1C1(NC(=O)N2CCN(c3ccc(C#N)cn3)CC2)C(=O)N(S(=O)(=O)c2ccccc2)c2ccc(C#N)cc21 (stereo not drawn) [Example 48, 4-(5-Cyanopyridin-2-yl)piperazine-1-[1-benzenesulfonyl-5-cyano-2-oxo-3-(2-ethoxyphenyl)-2,3-dihydro-1H-indol-3-yl]carboxamide]	10 to 100	< 100
CCOc1ccccc1C1(NC(=O)N2CCN(c3ccc(C#N)cn3)CC2)C(=O)N(S(=O)(=O)c2ccccc2F)c2ccc(C#N)cc21 (stereo not drawn) [Example 49, 4-(5-Cyanopyridin-2-yl)piperazin-1-[1-(2-fluorobenzenesulfonyl)-5-cyano-2-oxo-3-(2-ethoxyphenyl)-2,3-dihydro-1H-indol-3-yl]carboxamide]		< 100
CCOc1ccccc1C1(NC(=O)N2CCN(c3ccc(C#N)cn3)CC2)C(=O)N(S(=O)(=O)c2ccc(C#N)cc2)c2ccc(C#N)cc21 (stereo not drawn) [Example 50, 4-(5-Cyanopyridin-2-yl)piperazine-1-[1-(4-cyanobenzenesulfonyl)-5-cyano-2-oxo-3-(2-ethoxyphenyl)-2,3-dihydro-1H-indol-3-yl]carboxamide]	10 to 100	

The remaining lines, values ahead:

Ki [1] [nM]	Ki [2] [nM]	SMILES
10 to 100	< 100	CCOc1ccccc1C1(NC(=O)N2CCN(c3ncccc3C)CC2)C(=O)N(S(=O)(=O)c2ccc(OC)cc2OC)c2ccc(C#N)cc21 (stereo not drawn) [Example 32, 4-(3-Methylpyridin-2-yl)piperazine-1-[1-(2,4-dimethoxybenzenesulfonyl)-5-cyano-2-oxo-3-(2-ethoxyphenyl)-2,3-dihydro-1H-indol-3-yl]carboxamide]
< 10	< 100	CCOc1ccccc1C1(NC(=O)N2CCN(c3ncccn3)CC2)C(=O)N(S(=O)(=O)c2ccc(OC)cc2OC)c2ccc(C#N)cc21 (stereo not drawn) [Example 34, 4-(Pyrimidin-2-yl)piperazine-1-[1-(2,4-dimethoxybenzenesulfonyl)-5-cyano-2-oxo-3-(2-ethoxyphenyl)-2,3-dihydro-1H-indol-3-yl]carboxamide]
10 to 100	< 100	CCOc1ccccc1C1(OC(=O)N2CCN(c3nccs3)CC2)C(=O)N(S(=O)(=O)c2ccc(C#N)cc2)c2ccc(C#N)cc21 (stereo not drawn) [Example 42, 1-(4-Cyanobenzenesulfonyl)-5-cyano-2-oxo-3-(2-ethoxyphenyl)-2,3-dihydro-1H-indol-3-yl 4-(thiazol-2-yl)piperazine-1-carboxylate]
10 to 100	< 100	CCOc1ccccc1C1(NC(=O)N2CCN(c3ccc(C#N)cn3)CC2)C(=O)N(S(=O)(=O)c2ccccc2OC)c2ccc(C#N)cc21 (stereo not drawn) [Example 45, 4-(5-Cyanopyridin-2-yl)piperazine-1-[1-(2-methoxybenzenesulfonyl)-5-cyano-2-oxo-3-(2-ethoxyphenyl)-2,3-dihydro-1H-indol-3-yl]carboxamide]
